Experimental data reported in patent US10174037B2, “Dihydropyrazolopyrimidinone compounds as PDE2 inhibitors” (Merck Sharp & Dohme Corp., priority 2015, dated 2019).
Like-named read-outs stand apart in the source and are kept apart here.

Key:
[1] = target: Rhesus PDE2A3 (Macaca mulatta, UniProt B3VTJ2); test: PDE2 fluorescence polarization (IMAP FP) assay, rhesus PDE2A3; assay type: biochemical, rhesus macaque
Protocol: A Labcyte Echo 555 (Labcyte, Sunnyvale, Calif.) is used to dispense 200 nL from each well of the titration plate to the 384 well assay plate. Ten microliters of a solution of enzyme (1/2000 final dilution from aliquots; sufficient to produce 20% substrate conversion) was added to the assay plate. Next 10 uL of a separate solution of the substrate FAM-labeled cAMP (50 nM final concentration product # R7506 from Molecular Devices) and the activator cGMP (1 uM final concentration), prepared in the assay buffer (10 mM Tris HCl, pH 7.2, 10 mM MgCl2, 0.05% NaN3 0.01% Tween-20, and 1 mM DTT) was added to the assay plate and shaken to mix. The reaction is allowed to proceed at room temperature for 60 minutes. A binding solution is then made from the kit components, comprised of 80% Solution A, 20% Solution B and binding reagent at a volume of 1/600 the total binding solution. The enzymatic reaction is stopped by addition of 60 μL of the binding solution to each well of the assay plates and the plates are sealed and shaken for 30 seconds. The plate was incubated at room temperature for at least one hour prior to determining the fluorescence polarization (FP). The parallel and perpendicular fluorescence of each well of the plate was measured using a Tecan Genios Pro plate reader (Tecan, Switzerland) or Perkin Elmer EnVision™ plate reader (Waltham, Mass.). Fluorescence polarization (mP) was calculated from the parallel (S) and perpendicular (P) fluorescence of each sample well and the analogous values for the median control well, containing only substrate (So and Po), using the following equation: Polarization (mP)=1000*(S/So−P/Po)/(S/So+P/Po).
Dose-inhibition profiles for each compound were characterized by fitting the mP data to a four-parameter equation given below.
An apparent (KM) for FAM-labeled cAMP of ˜10 uM was used.

[2] = target: human PDE2A1 (Homo sapiens (Human), UniProt O00408); test: PDE selectivity IMAP FP assay, human PDE2A1; assay type: biochemical; conditions: Human PDE2
Outline: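 Compound titrations run against PDE2 in Tris HCl pH 7.2 buffer with MgCl2 and DTT for 60 min at room temperature, using 50 nM FAM-cAMP plus 1000 nM cGMP and enzyme giving 20% conversion.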

[3] = Lab B, read-out: Rhesus PDE2 Ki (nM) Lab B
[4] = Lab B, read-out: Human PDE2 Ki (nM) Lab B
[5] = Lab A, read-out: Rhesus PDE2 Ki (nM) Lab A
[6] = Lab A, read-out: Human PDE2 Ki (nM) Lab A

Sequence of human PDE2A1 (O00408 other isoform, or with tags, fused parts or gaps): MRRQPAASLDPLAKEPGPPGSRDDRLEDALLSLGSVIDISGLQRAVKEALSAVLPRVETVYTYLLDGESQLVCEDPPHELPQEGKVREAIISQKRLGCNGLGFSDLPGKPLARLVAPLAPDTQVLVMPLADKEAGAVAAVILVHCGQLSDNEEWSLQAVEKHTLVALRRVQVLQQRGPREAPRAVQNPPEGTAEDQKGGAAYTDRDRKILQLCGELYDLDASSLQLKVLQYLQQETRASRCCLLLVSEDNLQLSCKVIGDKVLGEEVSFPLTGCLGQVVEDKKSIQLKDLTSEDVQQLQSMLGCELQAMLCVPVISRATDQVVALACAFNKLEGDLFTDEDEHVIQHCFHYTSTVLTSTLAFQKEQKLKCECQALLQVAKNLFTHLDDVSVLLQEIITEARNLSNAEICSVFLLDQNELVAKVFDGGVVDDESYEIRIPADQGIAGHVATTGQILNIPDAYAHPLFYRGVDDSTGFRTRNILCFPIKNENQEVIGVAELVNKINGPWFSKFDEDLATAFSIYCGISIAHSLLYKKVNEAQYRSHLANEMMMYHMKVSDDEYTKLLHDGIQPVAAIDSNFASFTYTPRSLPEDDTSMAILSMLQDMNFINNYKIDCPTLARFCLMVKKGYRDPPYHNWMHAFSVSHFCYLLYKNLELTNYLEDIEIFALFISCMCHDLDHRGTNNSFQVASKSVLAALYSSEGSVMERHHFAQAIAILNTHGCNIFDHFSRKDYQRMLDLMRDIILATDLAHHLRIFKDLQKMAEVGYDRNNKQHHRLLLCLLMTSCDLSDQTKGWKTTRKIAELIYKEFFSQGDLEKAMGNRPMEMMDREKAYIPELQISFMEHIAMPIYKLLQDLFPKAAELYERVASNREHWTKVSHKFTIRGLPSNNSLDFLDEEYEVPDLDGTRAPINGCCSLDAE
Sequence of Rhesus PDE2A3 (B3VTJ2 1-941): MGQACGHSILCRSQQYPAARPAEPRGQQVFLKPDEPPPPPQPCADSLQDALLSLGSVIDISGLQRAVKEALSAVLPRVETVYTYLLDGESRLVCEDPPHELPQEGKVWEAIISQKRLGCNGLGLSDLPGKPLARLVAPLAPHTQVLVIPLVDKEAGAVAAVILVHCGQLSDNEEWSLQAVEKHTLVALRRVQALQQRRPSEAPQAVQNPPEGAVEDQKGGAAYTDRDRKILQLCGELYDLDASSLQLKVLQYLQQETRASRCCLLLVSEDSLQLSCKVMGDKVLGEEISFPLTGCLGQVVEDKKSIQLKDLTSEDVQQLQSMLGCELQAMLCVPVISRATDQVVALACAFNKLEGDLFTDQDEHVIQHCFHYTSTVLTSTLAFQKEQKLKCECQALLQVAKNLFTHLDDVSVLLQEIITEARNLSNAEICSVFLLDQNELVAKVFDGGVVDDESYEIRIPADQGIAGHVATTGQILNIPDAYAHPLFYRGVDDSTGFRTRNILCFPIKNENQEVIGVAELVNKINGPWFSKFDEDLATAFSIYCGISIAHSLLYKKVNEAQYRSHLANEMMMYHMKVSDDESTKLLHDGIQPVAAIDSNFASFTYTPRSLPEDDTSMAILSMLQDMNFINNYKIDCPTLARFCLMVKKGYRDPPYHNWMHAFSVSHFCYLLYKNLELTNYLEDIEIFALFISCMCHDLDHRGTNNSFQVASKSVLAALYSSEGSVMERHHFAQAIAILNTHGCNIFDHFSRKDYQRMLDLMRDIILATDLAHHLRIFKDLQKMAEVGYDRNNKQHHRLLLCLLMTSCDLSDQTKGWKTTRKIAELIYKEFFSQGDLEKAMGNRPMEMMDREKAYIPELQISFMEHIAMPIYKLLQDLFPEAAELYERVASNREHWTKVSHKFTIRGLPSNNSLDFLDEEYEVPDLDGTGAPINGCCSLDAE

Compound | Ki [1, 3] | Ki [2, 4] | Ki [1, 5] | Ki [2, 6] | Ki ([1]; Rhesus PDE2 Ki (nM) Lab B, Lab B)
C[C@H](c1ccc(C(F)(F)F)c(F)c1)n1nc(CF)c2c(=O)[nH]c(O)nc21 (mixture of isomers) [Example 34, (R)- and (S)-1-(1-(3-Fluoro-4-(trifluoromethyl)phenyl)ethyl)-3-(fluoromethyl)-6-hydroxy-H-pyrazolo[3,4-d]pyrimidin-4(5H)-one] | 2.4 nM | 2.1 nM | – | – | –
CC(c1ccc(OC(F)(F)F)c(F)c1)n1nc(CC(F)(F)F)c2c(=O)[nH]c(O)nc21 (racemic) [Example 229, 1-(1-(3-Fluoro-4-(trifluoromethoxy)phenyl)ethyl)-6-hydroxy-3-(2,2,2-trifluoroethyl)-1H-pyrazolo[3,4-d]pyrimidin-4(5H)-one] | 13 nM | 9.6 nM | – | – | –
CC(c1ccc(OC(F)(F)F)cc1)n1nc(CC(F)(F)F)c2c(=O)[nH]c(O)nc21 (racemic) [Example 230, 6-Hydroxy-3-(2,2,2-trifluoroethyl)-1-(1-(4-(trifluoromethoxy)phenyl)ethyl)-1H-pyrazolo[3,4-d]pyrimidin-4(5H)-one] | 21 nM | 13 nM | – | – | –
CC(c1ccc(S(F)(F)(F)(F)F)cc1)n1nc(CC(F)(F)F)c2c(=O)[nH]c(O)nc21 (racemic) [Example 231, 6-Hydroxy-3-(2,2,2-trifluoroethyl)-1-(1-(4-(pentafluorosulfanyl)phenyl)ethyl)-1H-pyrazolo[3,4-d]pyrimidin-4(5H)-one] | 25 nM | 18 nM | – | – | –
CC(c1ccc(C(F)(F)F)c(F)c1)n1nc(CO)c2c(=O)[nH]c(O)nc21 (single isomer, unassigned) [Example 1] | 13 nM | 11 nM | – | – | –
CC(C)C(c1ccc(C(F)(F)F)cc1)n1nc(CO)c2c(=O)[nH]c(O)nc21 (single isomer, unassigned) [Example 13, (S)- or (R)-6-Hydroxy-3-(hydroxymethyl)-1-(2-methyl-1-(4-(trifluoromethyl)phenyl)propyl)-1H-pyazolo[3,4-d]pyrimidin-4(5H)-one] | 9.2 nM | 8.3 nM | – | – | –
CC(c1ccc(C(F)(F)F)cc1)n1nc(CO)c2c(=O)[nH]c(O)nc21 (single isomer, unassigned) [Example 19, (S)- or (R)-6-Hydroxy-3-(hydroxymethyl)-1-{1-[4-(trifluoromethyl)phenyl]ethyl}-1,5-dihydro-4H-pyrazolo[3,4-d]pyrimidin-4-one] | 20 nM | 24 nM | 14 nM | 9 nM | –
CC(c1ccc(S(F)(F)(F)(F)F)cc1)n1nc(CO)c2c(=O)[nH]c(O)nc21 (single isomer, unassigned) [Example 21, (S)- or (R)-6-Hydroxy-3-(hydroxymethyl)-1-{1-[4-(pentafluorosulfanyl)phenyl]ethyl}-1,5-dihydro-4H-pyrazolo[3,4-d]pyrimidin-4-one] | 27 nM | 28 nM | 20 nM | 13 nM | –
CC(C)C(c1ccc(C(F)(F)F)c(F)c1)n1nc(CO)c2c(=O)[nH]c(O)nc21 (single isomer, unassigned) [Example 27, (R)- or (S)-1-(1-(3-Fluoro-4-(trifluoromethyl)phenyl)-2-methylpropyl)-6-hydroxy-3-(hydroxymethyl)-1H-pyrazolo[3,4-d]pyrimidin-4(5H)-one] | 5.2 nM | 7 nM | – | – | –
CC(C)C(c1ccc(OC(F)(F)F)cc1)n1nc(CF)c2c(=O)[nH]c(O)nc21 (single isomer, unassigned) [Example 42, (R)- or (S)-3-(Fluoromethyl)-6-hydroxy-1-(2-methyl-1-(4-(trifluoromethoxy)phenyl)propyl)-1H-pyrazolo[3,4-d]pyrimidin-4(5H)-one] | – | 14 nM | – | – | 16 nM
CC(C)C(c1ccc(OC(F)(F)F)cc1)n1nc(CF)c2c(=O)[nH]c(O)nc21 (single isomer, unassigned) [Example 43, (S)- or (R)-3-(Fluorornethyl)-6-hydroxy-1-(2-methyl-1-(4-(trifluoromethoxy)phenyl)propyl)-1H-pyrazolo[3,4-d]pyrimidin-4(5H)-one] | 4.7 nM | 5.3 nM | – | – | –
O=c1[nH]c(O)nc2c1c(CF)nn2C(c1ccc(OC(F)(F)F)c(F)c1)C1CC1 (single isomer, unassigned) [Example 44] | 9.8 nM | 10 nM | – | – | –
O=c1[nH]c(O)nc2c1c(CF)nn2C(c1ccc(OC(F)(F)F)c(F)c1)C1CC1 (single isomer, unassigned) [Example 45] | 29 nM | 28 nM | – | – | –
CC(C)C(c1ccc(C(F)(F)F)c(F)c1)n1nc(CF)c2c(=O)[nH]c(O)nc21 (single isomer, unassigned) [Example 55] | 1.3 nM | 0.96 nM | – | – | –
CC(C)C(c1ccc(C(F)(F)F)c(F)c1)n1nc(CF)c2c(=O)[nH]c(O)nc21 (single isomer, unassigned) [Example 56] | 36 nM | 37 nM | – | – | –
CN(C)c1nc2c(c(CO)nn2C(c2ccc(C(F)F)cc2)C2CC2)c(=O)[nH]1 (single isomer, unassigned) [Example 62] | 0.28 nM | 0.27 nM | – | – | –
CC(C)C(c1ccc(C(F)(F)F)cc1)n1nc(CO)c2c(=O)[nH]c(N(C)C)nc21 (single isomer, unassigned) [Example 64, (R)- or (S)-6-Dimethylamino)-3-(hydroxymethyl)-1-(2-methyl-1-(4-(trifluoromethyl)phenyl)propyl)-1H-pyrazolo[3,4-d]pyrimidin-4(5H)-one] | 0.39 nM | 0.29 nM | – | – | –
CC(C)C(c1ccc(C(F)(F)F)cc1)n1nc(CO)c2c(=O)[nH]c(N(C)C)nc21 (single isomer, unassigned) [Example 65, (S)- or (R)-6-Dimethylamino)-3-(hydroxymethyl)-1-(2-methyl-1-(4-(trifluoromethyl)phenyl)propyl)-1H-pyrazolo[3,4-d]pyrimidin-4(5H)-one] | 0.076 nM | 0.069 nM | – | – | –
CC(c1ccc(C(C)(C)C)cc1)n1nc(CO)c2c(=O)[nH]c(N(C)C)nc21 (single isomer, unassigned) [Example 66, (R)- or (S)-1-(1-(4-tert-Butylphenyl)ethyl)-6-(dimethylamino)-3-(hydroxymethyl)-1H-pyrazolo[3,4-d]pyrimidin-4(5H)-one] | 12 nM | 6.1 nM | – | – | –
CC(c1ccc(C(F)(F)F)c(F)c1)n1nc(CO)c2c(=O)[nH]c(N(C)C)nc21 (single isomer, unassigned) [Example 68, (R)- or (S)-6-(Dimethylamino)-1-(1-(3-fluoro-4-(trifluoromethyl)phenyl)ethyl)-3-(hydroxymethyl)-1H-pyrazolo[3,4-d]pyrimidin-4(5H)-one] | 11 nM | 7.1 nM | – | – | –
CC(c1ccc(C(F)(F)F)c(F)c1)n1nc(CO)c2c(=O)[nH]c(N(C)C)nc21 (single isomer, unassigned) [Example 69, (S)- or (R)-6-(Dimethylamino)-1-(1-(3-fluoro-4-(trifluoromethyl)phenyl)ethyl)-3-(hydroxymethyl)-1H-pyrazolo[3,4-d]pyrimidin-4(5H)-one] | 0.27 nM | 0.27 nM | – | – | –
CC(c1ccc(CC(F)(F)F)cc1)n1nc(CO)c2c(=O)[nH]c(N(C)C)nc21 (single isomer, unassigned) [Example 71, (S)- or (R)-6-(Dimethylamino)-3-(hydroxymethyl)-1-(1-(4-(2,2,2-trifluoroethyl)phenyl)ethyl)-1H-pyrazolo[3,4-d]pyrimidin-4(5H)-one] | 0.95 nM | 0.75 nM | – | – | –
Cc1ccc(C(C)n2nc(CO)c3c(=O)[nH]c(O)nc32)cc1 (stereo not shown) [Example 8] | – | – | 411 nM | – | –
O=c1[nH]c(O)nc2c1c(CO)nn2Cc1ccc(C(F)(F)F)cc1 [Example 9, 6-Hydroxy-3-(hydroxymethyl)-1-[4-(trifluoromethyl)benzyl]-1,5-dihydro-4H-pyrazolo[3,4-d]pyrimidin-4-one] | – | – | ~548 nM | – | –
Cc1nn(Cc2ccc(C(F)(F)F)cc2)c2nc(O)[nH]c(=O)c12 [Example 61, 6-Hydroxy-3-methyl-1-[4-(trifluoromethyl)benzyl]-1,5-dihydro-4H-pyrazolo[3,4-d]pyrimidin-4-one] | – | – | ~951 nM | – | –
C[C@@H](c1ccc(C(F)(F)F)cc1)n1nc(COCc2ccccc2)c2c(=O)[nH]c(O)nc21 [Example 303, (S)-3-((Benzyloxy)methyl)-6-hydroxy-1-(1-(4-(trifluoromethyl)phenyl)ethyl)-1,5-dihydro-4H-pyrazolo[3,4-d]pyrimidin-4-one] | 206 nM | – | – | – | –
